Laboratory results reported in patent US20260240878A1, “PTP1B/TC-PTP DUAL INHIBITORS AND PROTEIN DEGRADERS” (Purdue Research Foundation, priority 2023, published 2026).
*1 amine or outer side, *2 acyl side, *3 side chain or, on linkers, in order; H or OH if unused. Where a SMILES comes first, the peptide text is derived from it. [ ]: non-standard residue; d: D form. The star is where a group is joined. NHBn(4-(4-Me-thiazol-5-yl)) = Cc1ncsc1-c1ccc(CN*)cc1; F2Pmp = N[C@@H](Cc1ccc(C(F)(F)P(=O)(O)O)cc1)C(=O)O; Phenylacetyl(4-OH,3-OMe) = COc1cc(CC(=O)*)ccc1O; Benzoyl(3-Br,4-Me) = Cc1ccc(C(=O)*)cc1Br; NH(CH2)9CO = O=C(CCCCCCCCCN[*:1])[*:2]; Hyp = O=C(O)[C@@H]1C[C@@H](O)CN1; dHyp = O=C(O)[C@H]1C[C@H](O)CN1; dTle = CC(C)(C)[C@@H](N)C(=O)O; Tle = CC(C)(C)[C@H](N)C(=O)O; 12Ado = NCCCCCCCCCCCC(=O)O; Ahp = NCCCCCCC(=O)O; Ava = NCCCCC(=O)O

How the values were obtained:
[1] = target: T1, PTP1B (Homo sapiens, UniProt P18031); experiment: PTP activity assay with pNPP substrate (IC50, Ki, mode of inhibition); type: biochemical; settings: for IC50: pNPP 2 mM, pH 7.0, 25° C., read-out: IC50, nM PTP1B
T1 sequence (P18031 1-435): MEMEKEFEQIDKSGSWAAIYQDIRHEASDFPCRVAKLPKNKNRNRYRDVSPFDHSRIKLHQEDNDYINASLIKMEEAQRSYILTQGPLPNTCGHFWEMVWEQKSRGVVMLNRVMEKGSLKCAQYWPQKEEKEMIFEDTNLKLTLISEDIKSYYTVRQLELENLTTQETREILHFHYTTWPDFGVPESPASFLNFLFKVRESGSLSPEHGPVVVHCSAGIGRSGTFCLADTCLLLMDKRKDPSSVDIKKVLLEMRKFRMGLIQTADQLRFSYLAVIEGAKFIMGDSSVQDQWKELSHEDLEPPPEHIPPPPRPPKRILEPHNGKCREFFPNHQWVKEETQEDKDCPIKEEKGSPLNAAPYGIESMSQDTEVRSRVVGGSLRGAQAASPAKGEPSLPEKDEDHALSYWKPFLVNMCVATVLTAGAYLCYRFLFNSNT
Protocol: (§1) PTP activity was assayed using p-nitrophenyl phosphate (pNPP) as a substrate in DMG buffer (50 mM DMG. pH 7.0, 1 mM EDTA, 150 mM NaCl, 2 mM DTT, 0.1 mg/mL BSA) at 25° C. The assays were performed in 96-well plates. Normally, to determine the IC50 values, the reaction was initiated by the addition of enzyme (for PTP1B and TCPTP, the final concentration was 0.4 nM, for other PTPs, the final concentration was 10 nM) to a reaction mixture (0.2 mL) containing 2 mM (Km for the substrate) pNPP with various concentrations of inhibitors (see FIG. 1). The reaction rate was measured using a SpectraMax Plus 384 Microplate Spectrophotometer (Molecular Devices). Data were fitted using SigmaPlot Enzyme Kinetics Module (Systat Software, Inc.). To determine the mode of inhibition, the reactions were initiated by the addition of enzyme (final concentration for TC-PTP and PTP1B was 0.4 nM) to the reaction mixtures (0.2 mL) containing various concentrations of pNPP with different concentrations of the inhibitor. Data were fitted using SigmaPlot Enzyme Kinetics Module (Systat Software. Inc.).

[2] = target: T2, TC-PTP (Homo sapiens, UniProt P17706); experiment: as above; type: biochemical; settings: for IC50: pNPP 2 mM, pH 7.0, 25° C., read-out: IC50, nM TC-PTP
T2 sequence (P17706 1-415): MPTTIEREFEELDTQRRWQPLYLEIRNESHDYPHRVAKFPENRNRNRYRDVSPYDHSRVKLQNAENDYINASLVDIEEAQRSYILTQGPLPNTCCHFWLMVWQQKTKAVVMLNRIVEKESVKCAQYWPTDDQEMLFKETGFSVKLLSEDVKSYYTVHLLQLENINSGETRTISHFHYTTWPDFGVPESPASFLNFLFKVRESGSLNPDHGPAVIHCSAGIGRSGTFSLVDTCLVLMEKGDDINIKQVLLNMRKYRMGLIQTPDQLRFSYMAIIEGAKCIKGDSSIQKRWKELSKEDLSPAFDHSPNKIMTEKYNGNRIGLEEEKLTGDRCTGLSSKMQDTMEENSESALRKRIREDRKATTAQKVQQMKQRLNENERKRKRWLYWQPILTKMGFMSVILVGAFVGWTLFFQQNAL
Protocol: as §1

[3] = target: T1, PTP1B; experiment: Degradation assay in HEK293 cells (immunoblotting); type: cell-based; parameters: Degradation assay was conducted in HEK293 cells with 1 μM degrader and 24 hours incubation; endogenous in cells; host or cells: HEK293; settings: 1 μM degrader, 24 hours
Protocol: (§2) HEK293. MIAPaCa-2, HepG2, U2OS, H116, MEF, B16F10, and MC38 cells, were grown in DMEM, while Jurkat and H358 cells were grown in RPMI 1640 supplemented with 10% fetal bovine serum, penicillin (50 units/mL), and streptomycin (50 μg/mL) in a 37° C. incubator containing 5% CO2. 20 ng/ml human (Biolegend #713906) or mouse (Biolegend #714006) Interferon-γ were used for JAK/STAT pathway stimulation.
(§3) Tissues or cultured cells were lysed with ice-cold lysis buffer (50 mM Tris (pH 8.0, 150 mM NaCl, 10% Glycerol, 1% Triton-X-100) supplied with phosphatase inhibitor (Bimake) and protease inhibitor mixture (Roche Applied Science). Equal amounts of protein were resolved by SDS-PAGE, transferred to nitrocellulose membrane, and subjected to immunoblotting. Antibodies used in this study include anti-following proteins: pSTAT1^Tyr701 (Cell Signaling Technology #9167, 1:3000), GAPDH (Cell Signaling Technology #97166, 1:5000), pJAK1^Tyr1034/1035 (Cell Signaling Technology #74129, 1:1000), pJAK2^Tyr1007/1008 (Cell Signaling Technology #3776, 1:1000), TC-PTP (Abcam #ab180764, 1:3000). PTP1B (Abcam #ab244207, 1:1500).
(§4) Degradation assay was conducted in HEK293 cells with 1 μM degrader and 24 hours incubation.
(§5) The degradation assay was conducted in HEK293 cells with 0.2 μM degrader and 16 hours incubation.

[4] = target: T2, TC-PTP; experiment: Degradation assay in HEK293 cells (immunoblotting); type: cell-based; parameters: Degradation assay was conducted in HEK293 cells with 1 μM degrader and 24 hours incubation; endogenous in cells; host or cells: HEK293; settings: 1 μM degrader, 24 hours, read-out: % Protein Degradation TC-PTP
Protocol: as §2, §3, §4, §5

[5] = target: T2, TC-PTP; experiment: Degradation assay in HEK293 cells (immunoblotting); type: cell-based; parameters: endogenous in cells; host or cells: HEK293; settings: 0.2 μM degrader, 16 hours, read-out: % Protein Degradation TC-PTP
Protocol: as §2, §3, §4, §5

Row | Compound | IC50 [1] | IC50 [2] | % Protein Degradation PTP1B [3] | percent TC-PTP degradation at 1 µM [4] | Ki ([1]; PTP1B-catalyzed pNPP hydrolysis) | Ki ([2]; TC-PTP catalyzed pNPP hydrolysis) | percent TC-PTP degradation at 0.2 µM [5]
1 | COc1cc(CC(=O)N[C@@H](Cc2ccccc2)C(=O)N[C@@H](Cc2ccc(C(F)(F)P(=O)(O)O)cc2)C(=O)N[C@@H](CCCCNC(=O)c2ccc(C)c(Br)c2)C(=O)NCCCCC(=O)N[C@@H](C(=O)N2C[C@@H](O)C[C@@H]2C(=O)NCc2ccc(-c3scnc3C)cc2)C(C)(C)C)ccc1O [Compound 6, ((4-((S)-3-(((S)-6-(3-bromo-4-methylbenzamido)-1-((5-(((R)-1-((2R,4S)-4-hydroxy-2-((4-(4-methylthiazol-5-yl)benzyl)carbamoyl)pyrrolidin-1-yl)-3,3-dimethyl-1-oxobutan-2-yl)amino)-5-oxopentyl)amino)-1-oxohexan-2-yl)amino)-2-((S)-2-(2-(4-hydroxy-3-methoxyphenyl)acetamido)-3-phenylpropanamido)-3-oxopropyl)phenyl)difluoromethyl)phosphonic Acid] ({Phenylacetyl(4-OH,3-OMe)}-F[F2Pmp]K(Benzoyl(3-Br,4-Me))[Ava][dTle][dHyp]-{NHBn(4-(4-Me-thiazol-5-yl))}) | 29.4 ± 2.1 nM | 34.3 ± 14.8 nM | 53% | 58% | – | – | –
2 | COc1cc(CC(=O)N[C@@H](Cc2ccccc2)C(=O)N[C@@H](Cc2ccc(C(F)(F)P(=O)(O)O)cc2)C(=O)N[C@@H](CCCCNC(=O)c2ccc(C)c(Br)c2)C(=O)NCCCCCCC(=O)N[C@@H](C(=O)N2C[C@@H](O)C[C@@H]2C(=O)NCc2ccc(-c3scnc3C)cc2)C(C)(C)C)ccc1O [Compound 10, ((4-((S)-3-(((S)-6-(3-bromo-4-methylbenzamido)-1-((7-(((R)-1-((2R,4S)-4-hydroxy-2-((4-(4-methylthiazol-5-yl)benzyl)carbamoyl)pyrrolidin-1-yl)-3,3-dimethyl-1-oxobutan-2-yl)amino)-7-oxoheptyl)amino)-1-oxohexan-2-yl)amino)-2-((S)-2-(2-(4-hydroxy-3-methoxyphenyl)acetamido)-3-phenylpropanamido)-3-oxopropyl)phenyl)difluoromethyl)phosphonic Acid] ({Phenylacetyl(4-OH,3-OMe)}-F[F2Pmp]K(Benzoyl(3-Br,4-Me))[Ahp][dTle][dHyp]-{NHBn(4-(4-Me-thiazol-5-yl))}) | 7.4 ± 0.6 nM | 6.8 ± 0.6 nM | 61% | 69% | – | – | –
3 | COc1cc(CC(=O)N[C@@H](Cc2ccccc2)C(=O)N[C@@H](Cc2ccc(C(F)(F)P(=O)(O)O)cc2)C(=O)N[C@@H](CCCCNC(=O)c2ccc(C)c(Br)c2)C(=O)NCCCCCCCCCC(=O)N[C@H](C(=O)N2C[C@H](O)C[C@H]2C(=O)NCc2ccc(-c3scnc3C)cc2)C(C)(C)C)ccc1O [Compound 14, ((4-((S)-3-(((S)-6-(3-bromo-4-methylbenzamido)-1-((10-(((S)-1-((2S,4R)-4-hydroxy-2-((4-(4-methylthiazol-5-yl)benzyl)carbamoyl)pyrrolidin-1-yl)-3,3-dimethyl-1-oxobutan-2-yl)amino)-10-oxodecyl)amino)-1-oxohexan-2-yl)amino)-2-((S)-2-(2-(4-hydroxy-3-methoxyphenyl)acetamido)-3-phenylpropanamido)-3-oxopropyl)phenyl)difluoromethyl)phosphonic Acid] ({Phenylacetyl(4-OH,3-OMe)}-F[F2Pmp]K(Benzoyl(3-Br,4-Me))[NH(CH2)9CO][Tle][Hyp]-{NHBn(4-(4-Me-thiazol-5-yl))}) | 10.3 ± 0.6 nM | 6.8 ± 0.3 nM | 38% | 62% | – | – | –
4 | COc1cc(CC(=O)N[C@@H](Cc2ccccc2)C(=O)N[C@@H](Cc2ccc(C(F)(F)P(=O)(O)O)cc2)C(=O)N[C@@H](CCCCNC(=O)c2ccc(C)c(Br)c2)C(=O)NCCCCCCCCCCCC(=O)N[C@H](C(=O)N2C[C@H](O)C[C@H]2C(=O)NCc2ccc(-c3scnc3C)cc2)C(C)(C)C)ccc1O [Compound 18, ((4-((S)-3-(((S)-6-(3-bromo-4-methylbenzamido)-1-((12-(((S)-1-((2S,4R)-4-hydroxy-2-((4-(4-methylthiazol-5-yl)benzyl)carbamoyl)pyrrolidin-1-yl)-3,3-dimethyl-1-oxobutan-2-yl)amino)-12-oxododecyl)amino)-1-oxohexan-2-yl)amino)-2-((S)-2-(2-(4-hydroxy-3-methoxyphenyl)acetamido)-3-phenylpropanamido)-3-oxopropyl)phenyl)difluoromethyl)phosphonic Acid] ({Phenylacetyl(4-OH,3-OMe)}-F[F2Pmp]K(Benzoyl(3-Br,4-Me))[12Ado][Tle][Hyp]-{NHBn(4-(4-Me-thiazol-5-yl))}) | 22.3 ± 1.1 nM | 8.9 ± 0.6 nM | 29% | 30% | – | – | –
5 | COc1cc(CC(=O)N[C@@H](Cc2ccccc2)C(=O)N[C@@H](Cc2ccc(C(F)(F)P(=O)(O)O)cc2)C(=O)N[C@@H](CCCCNC(=O)c2ccc(C)c(Br)c2)C(N)=O)ccc1O [Example 7, ((4-((S)-3-(((S)-1-amino-6-(3-bromo-4-methylbenzamido)-1-oxohexan-2-yl)amino)-2-((S)-2-(2-(4-hydroxy-3-methoxyphenyl)acetamido)-3-phenylpropanamido)-3-oxopropyl)phenyl)difluoromethyl)phosphonic Acid] | 4.7 ± 0.3 nM | 7.1 ± 0.4 nM | – | 0% | 2.4 nM | 3.6 nM | 0%
